Results taken from paper PMC5474226 (Cancer research, 2017).
Like-named read-outs stand apart in the source and are kept apart here. Blank lines part the entries; values can stand above or below the substance they belong to.

Tests used:
[1] = test system: advanced non-small cell lung cancer; conditions: ref [8], cited from earlier work
[2] = target: granzyme B; conditions: tetrapeptide with C-terminus aspartate modified to aldehyde; ref [21],[22]; cited from earlier work
[3] = target: granzyme B (activated from pro-granzyme B) (UniProt P04187); assay: enzyme inhibition assay
Chain of UniProt P04187 (P04187 21-247): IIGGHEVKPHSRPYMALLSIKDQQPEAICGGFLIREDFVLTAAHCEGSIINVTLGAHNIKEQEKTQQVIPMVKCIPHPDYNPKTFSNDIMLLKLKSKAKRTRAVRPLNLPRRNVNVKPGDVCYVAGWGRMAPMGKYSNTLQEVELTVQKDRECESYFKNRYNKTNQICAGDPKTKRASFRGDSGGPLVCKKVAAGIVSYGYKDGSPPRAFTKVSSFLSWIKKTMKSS

Substance: pembrolizumab
response rate ([1]; patients with >1% positive PD-L1 staining): 18%
response rate ([1]; tumors with greater than 50% positive staining for PD-L1): 30%

Substance: Ile-Glu-Phe-Asp
Ki [2]: 80 nM

Ki [3]: 47 nM
Substance: NOTA–β-Ala–Gly–Gly–Ile–Glu–Phe–Asp–CHO (NOTA-GZP), gallium-labelled (peptide)
